Reference: patent US20140045823A1 (Neurocrine Biosciences, Inc., priority 2012, published 2014)
pEC50: −log10 of the molar value.

Molecular target: T1, human GPR119 (Homo sapiens, UniProt Q8TDV5)
T1 construct: expression vector for human GPR119 cDNA (Acc. No. NP_848566); expressed in transfected cells; Min-6/hGPR119
T1 sequence (Q8TDV5 1-335): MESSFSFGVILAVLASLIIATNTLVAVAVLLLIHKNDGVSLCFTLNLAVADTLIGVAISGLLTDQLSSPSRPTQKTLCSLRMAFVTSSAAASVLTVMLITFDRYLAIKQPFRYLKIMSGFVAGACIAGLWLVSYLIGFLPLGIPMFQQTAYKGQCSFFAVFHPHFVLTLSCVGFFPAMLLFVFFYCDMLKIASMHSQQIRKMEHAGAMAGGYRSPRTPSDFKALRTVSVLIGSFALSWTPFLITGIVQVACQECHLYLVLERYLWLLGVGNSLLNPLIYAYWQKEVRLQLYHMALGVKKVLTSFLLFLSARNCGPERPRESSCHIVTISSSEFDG
Experiment: AlphaScreen cAMP assay in MIN6 cells stably transfected with human GPR119
Format: cell-based
Conditions: Min-6/hGPR119 cells, 45 min at room temperature
Method: The compounds of formula I according to the invention modulate the activity of the G-protein-coupled receptor GPR119. The effect of the compounds on the activation of GPR119 and on the stimulation of intracellular cAMP concentration is determined using the AlphaScreen cAMP Assay Kit (Cat. No. #6760625R) made by PerkinElmer.
MIN6 cells [Miyazaki J et al. Endocrinology. 1990 July; 127(1):126-32] are stably transfected with an expression vector for human GPR119 cDNA (Acc. No. NP_848566). Min-6/hGPR119 cells are cultured in DMEM, 10% FBS, 50 μM β-mercaptoethanol, 0.3 mg/mL Geniticin, 2 mM GlutaMAX at 37° C. 5% CO2. For the assay, the cells are seeded in Optiplates (white, 384-well, 160 W—barcoded, TC, sterile with lid, Cat. No. #6007688 (Perkin Elmer); 10000 cells/well; 50 μl). The plates covered with lids are then incubated for 24 hours at 37° C./5% CO2. After the medium is aspirated from the wells completely, 10 μl of the test compound are added, the compounds are diluted using stimulating buffer (140 mM NaCl, 3.6 mM KCl, 0.5 mM NaH2PO4, 0.5 mM MgSO4, 1.5 mM CaCl2, 10 mM Hepes, 5 mM NaHCO3; pH 7.4. 0.5 mM IBMX and 0.1% BSA, the final DMSO concentration is 1%). After 45 minutes incubation at room temperature (approx. 20° C.), the cAMP concentrations are determined using the AlphaScreen cAMP Assay Kit (Cat. No. #6760625R from PerkinElmer).

Row | Compound | pEC50
1 | CC(C)(C)OC(=O)N1CCC(N(C(=O)c2cc(-c3ccc(C#N)c(F)c3)on2)C2CC2)CC1 [Example 40, 4-{[5-(4-Cyano-3-fluoro-phenyl)-isoxazole-3-carbonyl]-cyclopropyl-amino}-piperidine-1-carboxylic acid tert-butyl ester] | 8.15
2 | CC(C)(C)OC(=O)N1CCC(N(C(=O)c2cc(-c3ccc(C#N)cc3)no2)C2CC2)CC1 [Example 41, 4-{[3-(4-Cyano-phenyl)-isoxazole-5-carbonyl]-cyclopropyl-amino}-piperidine-1-carboxylic acid tert-butyl ester] | 7.96
3 | CC(C)(C)OC(=O)N1CCC(N(C(=O)c2cc(-c3ccc(C#N)cc3F)no2)C2CC2)CC1 [Example 42, 4-{[3-(4-Cyano-2-fluoro-phenyl)-isoxazole-5-carbonyl]-cyclopropyl-amino}-piperidine-1-carboxylic acid tert-butyl ester] | 8.70
4 | CC(C)(C)OC(=O)N1CCC(N(C(=O)c2cc(-c3ccc(C#N)c(F)c3)no2)C2CC2)CC1 [Example 43, 4-{[3-(4-Cyano-3-fluoro-phenyl)-isoxazole-5-carbonyl]-cyclopropyl-amino}-piperidine-1-carboxylic acid tert-butyl ester] | 7.85
5 | Cc1c(C(=O)N(C2CC2)C2CCN(C(=O)OC(C)(C)C)CC2)noc1-c1ccc(C#N)cc1 [Example 44, 4-{[5-(4-Cyano-phenyl)-4-methyl-isoxazole-3-carbonyl]-cyclopropyl-amino}-piperidine-1-carboxylic acid tert-butyl ester] | 7.33
6 | Cc1c(C(=O)N(C2CC2)C2CCN(C(=O)OC(C)(C)C)CC2)noc1-c1ccc(C#N)c(F)c1 [Example 45, 4-{[5-(4-Cyano-3-fluoro-phenyl)-4-methyl-isoxazole-3-carbonyl]-cyclopropyl-amino}-piperidine-1-carboxylic acid tert-butyl ester] | 7.60
7 | Cc1c(C(=O)N(C2CC2)C2CCN(C(=O)OC(C)(C)C)CC2)noc1-c1ccc(C#N)cc1F [Example 46, 4-{[5-(4-Cyano-2-fluoro-phenyl)-4-methyl-isoxazole-3-carbonyl]-cyclopropyl-amino}-piperidine-1-carboxylic acid tert-butyl ester] | 8.52
8 | CC(C)(C)OC(=O)N1CCC(N(C(=O)c2csc(-c3ccc(C#N)cc3)n2)C2CC2)CC1 [Example 47, 4-{[2-(4-Cyano-phenyl)-thiazole-4-carbonyl]-cyclopropyl-amino}-piperidine-1-carboxylic acid tert-butyl ester] | 5.73
9 | Cc1nc(-c2ccc(C#N)cc2F)sc1C(=O)N(C1CC1)C1CCN(C(=O)OC(C)(C)C)CC1 [Example 48, 4-{[2-(4-Cyano-2-fluoro-phenyl)-4-methyl-thiazole-5-carbonyl]-cyclopropyl-amino}-piperidine-1-carboxylic acid tert-butyl ester] | 5.87
10 | CC(C)(C)OC(=O)N1CCC(N(C(=O)c2ncn(-c3ccc(C#N)cc3F)n2)C2CC2)CC1 [Example 49, 4-{[1-(4-Cyano-2-fluoro-phenyl)-1H-[1,2,4]triazole-3-carbonyl]-cyclopropyl-amino}-piperidine-1-carboxylic acid tert-butyl ester] | 6.83
11 | CC(C)(C)OC(=O)N1CCC(N(C(=O)c2ncn(-c3ccc(C#N)cc3)n2)C2CC2)CC1 [Example 50, 4-{[1-(4-Cyano-phenyl)-1H-[1,2,4]triazole-3-carbonyl]-cyclopropyl-amino}-piperidine-1-carboxylic acid tert-butyl ester] | 6.30
12 | CC(C)OC(=O)N1CCC(N(C(=O)c2cnc(-n3ccnc3)nc2)C2CC2)CC1 [Example 51, 4-[Cyclopropyl-(2-imidazol-1-yl-pyrimidine-5-carbonyl)-amino]-piperidine-1-carboxylic acid isopropyl ester] | 6.85
13 | CCc1nccn1-c1ncc(C(=O)N(C2CC2)C2CCN(C(=O)OC(C)C)CC2)cn1 [Example 52, 4-{Cyclopropyl-[2-(2-ethyl-imidazol-1-yl)-pyrimidine-5-carbonyl]-amino}-piperidine-1-carboxylic acid isopropyl ester] | 6.68
14 | CC(C)OC(=O)N1CCC(N(C(=O)c2cnc(-c3ccc(S(C)(=O)=O)cc3)nc2)C2CC2)CC1 [Example 53, 4-{Cyclopropyl-[2-(4-methanesulfonyl-phenyl)-pyrimidine-5-carbonyl]-amino}-piperidine-1-carboxylic acid isopropyl ester] | 6.92
15 | Cc1nccn1-c1ncc(C(=O)N(C2CC2)C2CCN(C(=O)OC(C)C)CC2)cn1 [Example 54, 4-{Cyclopropyl-[2-(2-methyl-imidazol-1-yl)-pyrimidine-5-carbonyl]-amino}-piperidine-1-carboxylic acid isopropyl ester] | 6.89
16 | Cc1nccn1-c1ncc(C(=O)N(C2CC2)C2CCN(C(=O)OC3(C)CC3)CC2)cn1 [Example 55, 4-{Cyclopropyl-[2-(2-methyl-imidazol-1-yl)-pyrimidine-5-carbonyl]-amino}-piperidine-1-carboxylic acid 1-methyl-cyclopropyl ester] | 6.97
17 | CC(C)(C)OC(=O)N1CCC(N(C(=O)c2cnc(-n3cccn3)nc2)C2CC2)CC1 [Example 56, 4-[Cyclopropyl-(2-pyrazol-1-yl-pyrimidine-5-carbonyl)-amino]-piperidine-1-carboxylic acid tert-butyl ester] | 5.56
18 | Cc1cc(C)n(-c2ncc(C(=O)N(C3CC3)C3CCN(C(=O)OC(C)(C)C)CC3)cn2)n1 [Example 57, 4-{Cyclopropyl-[2-(3,5-dimethyl-pyrazol-1-yl)-pyrimidine-5-carbonyl]-amino}-piperidine-1-carboxylic acid tert-butyl ester] | 5.43
19 | CC(C)(C)OC(=O)N1CCC(N(C(=O)c2cnc(-n3cc(CCO)cn3)nc2)C2CC2)CC1 [Example 58, 4-(Cyclopropyl-{2-[4-(2-hydroxy-ethyl)-pyrazol-1-yl]-pyrimidine-5-carbonyl}-amino)-piperidine-1-carboxylic acid tert-butyl ester] | 5.66
20 | CCOc1ccc(-c2ncc(C(=O)N(C3CC3)C3CCN(C(=O)OC(C)C)CC3)cn2)cn1 [Example 59, 4-{Cyclopropyl-[2-(6-ethoxy-pyridin-3-yl)-pyrimidine-5-carbonyl]-amino}-piperidine-1-carboxylic acid isopropyl ester] | 6.78
21 | CC(C)OC(=O)N1CCC(N(C(=O)c2cnc(-c3ccc(CC#N)cc3)nc2)C2CC2)CC1 [Example 60, 4-{[2-(4-Cyanomethyl-phenyl)-pyrimidine-5-carbonyl]-cyclopropyl-amino}-piperidine-1-carboxylic acid isopropyl ester] | 7.12
22 | CC(C)OC(=O)N1CCC(N(C(=O)c2cnc(-c3ccc(C#N)c(F)c3)nc2)C2CC2)CC1 [Example 61, 4-{[2-(4-Cyano-3-fluoro-phenyl)-pyrimidine-5-carbonyl]-cyclopropyl-amino}-piperidine-1-carboxylic acid isopropyl ester] | 7.89
23 | CC(C)(C)OC(=O)N1CCC(N(C(=O)c2ccc(-c3cccc([N+](=O)[O-])c3)o2)C2CC2)CC1 [Example 62, 4-{Cyclopropyl-[5-(3-nitro-phenyl)-furan-2-carbonyl]-amino}-piperidine-1-carboxylic acid tert-butyl ester] | 6.10
